One may read the MIC50 as an inhibitory concentration at the 50% level, which refers to growth in some studies and to a panel of isolates in others. The term MIC90 denotes the lowest concentration that inhibits either 90% of growth or 90% of the strains tested, depending on the study.

In brackets after ≈: the same amount, converted by molar mass. Read-outs that look alike come from different tables or passages of the source.

Series [1] has as its system Burkholderia cepacia. The series is described as follows: RFX MIC testing against MDR clinical isolates. The series is classed as cell-based. How it is done: (§1) Minimum Inhibitory Concentration Testing. MIC testing was performed as previously described. Briefly, overnight culture of bacteria was diluted in 1:100 of a 0.5 McFarland standard as inoculum. The same number of cells was grown in LB broth containing serial, two-fold dilutions of rifaximin (RFX) or tobramycin (TOB). Growth was measured via optical density (OD) at 600 nm after 24 h incubation at 37° C. Concentrations of antibiotic required for inhibition of 50% and 90% of strains were determined.
(§2) Because RFX was not a traditional treatment for P. aeruginosa infections, it was first tested whether RFX was effective in vitro against P. aeruginosa and other bacterial pathogens seen in CF. Since RFX is not used for treatment of ventilator-associated pneumonia (VAP), it was thought the isolates of tracheal aspirates from VAP patients in the ICU may be sensitive to RFX. To determine the susceptibility to RFX, resistant isolates from the Cabell Huntington Hospital were chosen to measure the minimum inhibitory concentrations (MIC) for RFX (Table 3).
(§3) MIC50 and MIC90 are the concentrations of RFX required for the growth inhibition of 50% and 90% of strains, respectively.

Series [2] concerns Pseudomonas aeruginosa. Description: RFX MIC testing against MDR clinical isolates. The series is classed as cell-based. How it is done: as §1, §2, §3
Series [3] concerns promoter PalgD of the alginate biosynthetic operon. Description: PalgD-lacZ promoter reporter (β-galactosidase) activity. The following applies: PAO581, CF001, CF010; MIC1, MIC10, MIC30, MIC50 on PIA, 37° C., 24 h. The series is classed as cell-based, Pseudomonas aeruginosa. As to the method: FIGS. 2A-2C include graphs showing RFX versus TOB mediated inhibition of the promoter PalgD activity of the alginate biosynthetic operon in laboratory and clinical isolates of P. aeruginosa. The β-galactosidase activity of PalgD was measured using the pLP170-PalgD-lacZ reporter construct in PAO581 (FIG. 2A), CF001 (FIG. 2B), and CF010 (FIG. 2C) grown on PIA plates with increasing concentrations of RFX or TOB (MIC1, MIC10, MIC30, MIC50) at 37° C. for 24 h. Relative expression mean values are shown ±SE of triplicate determinations. Two-way ANOVA was used to determine statistical significance set at a P value of <0.01 (****, P<0.0001).
While RFX inhibits alginate production, additional experiments were conducted to determine whether the inhibition was specific to alginate or whether it was a global suppression of transcription. To test this, the promoter reporter constructs PalgD_lacZ in pLP170 were used to quantify the promoter activity of the alginate biosynthetic operon PalgD. A promoter-less empty vector pLP170-lacZ was used as a negative control. Using the β-galactosidase reporter activity, the activity of PalgD in PAO581 was quantified (FIG. 2A), and two mucoid isolates (CF001 and CF010) from CF patients.

Series [4] is described as follows: Particle (droplet) size analysis of aerosol drugs. The series is classed as physicochemical. The following applies: 60 mg/mL; TOB in 0.225% saline, RFX in 100% DMSO; nebulizer aerosol, Malvern Spraytec. How it is done: Particle Size Analysis of Aerosol Drugs. Droplet size analysis of drugs used for aerosol therapy was conducted by Spray Analytics (Lincolnshire, Ill.). Samples of TOB in 0.225% saline and RFX in 100% DMSO at concentrations of 60 mg/mL for both were prepared and submitted along with nebulizer unit used for animal experiments. A Malvern Spraytec was used for analysis with the tested product sprayed horizontally at less than 5 cm from the detector beam. The samples were measured in triplicates for 20-30 seconds of stable operation of the nebulizer. Refractive index and absorption values used were that of DMSO for RFX and water for TOB.
The potential adverse effects of using DMSO were first assessed by nebulizing DMSO alone to a group of C57BL/6 mice (n=8). This type of mice was used due to their natural resistance against infection based on our previous studies. […] Next, the delivery of both RFX and TOB via nebulization was optimized. […] To determine the dosage of each drug received by the mice, the lungs were homogenized and drug concentrations of TOB and RFX were determined via ELISA and HPLC, respectively. […] The droplet size for both TOB and RFX were determined to be identical with the average droplet size for TOB and RFX being 5.07 μm and 5.02 μm, respectively.

In series [5] the test system is P. aeruginosa biofilms. Description: Viable cell assay in preformed biofilms (MTT). The series is classed as cell-based, Pseudomonas aeruginosa. The conditions noted are these: PAO1, CF001, CF010; 24 h biofilms treated at 3×MIC. How it is done: FIGS. 3A-3B include graphs showing biofilm and cell viability reduction from treatment with TOB and/or RFX, where (FIG. 3A) biofilms were grown for 24 h in a 96-well plate and then treated with TOB, RFX, or TOB and RFX at a concentration of 3×MIC, or where (FIG. 3B) biofilms were grown for 24 h in a 96-well plate and then treated with TOB, RFX, or TOB and RFX at concentration of 3×MIC. Two-way ANOVA analysis was used with statistical significance set as a P value of <0.01 (****, P<0.0001; **, P<0.001; *, P<0.01).
Viable Cell Assay. Viable cell counts were done to determine the reduction of viable cells in preformed biofilms treated with TOB and/or RFX. Briefly, following biofilm reduction protocol, biofilms were grown in a flat bottom 96-well microplate (Corning) using 200 μl LB of 1.0-1.5×10^5 inoculum of lab and clinical strains of non-mucoid and mucoid P. aeruginosa for 24 h at 37° C. After incubation, the media was removed, and plate was washed with PBS twice. New LB media containing 1-5×MIC90 of TOB and/or RFX was added to the plate in a checkerboard pattern. After 24 h growth at 37° C., the media was removed and replaced with methylthiazoltetrazolium (MTT; Sigma). After 1 h incubation, DMSO was added and plates were read via OD at 570 nm using SpectraMax i3x plate reader to determine viable cell differences between TOB and/or RFX. […]

For `CO[C@H]1/C=C/O[C@@]2(C)Oc3c(C)c(O)c4c(O)c(c5c(nc6cc(C)ccn65)c4c3C2=O)NC(=O)/C(C)=C\C=C\[C@H](C)[C@H](O)[C@@H](C)[C@@H](O)[C@@H](C)[C@H](OC(C)=O)[C@@H]1C` [RFX, rifaximin], the MIC50 was found to be 16 µg/mL (≈ 20.4 µM) in series [1] (Burkholderia cepacia, 4 strains, concentration inhibiting growth of 50% of strains); 8 µg/mL (≈ 10.2 µM) in series [2] (26 MDR clinical isolates, concentration inhibiting growth of 50% of strains); 8 µg/mL (≈ 10.2 µM) in series [2] (Pseudomonas aeruginosa, MDR P. aeruginosa, read-out: MIC50). In addition, the MIC90 in series [1] (Burkholderia cepacia, 4 strains, concentration inhibiting growth of 90% of strains) was found to be 32 µg/mL (≈ 40.7 µM); in series [2] (26 MDR clinical isolates, concentration inhibiting growth of 90% of strains), 16 µg/mL (≈ 20.4 µM); in series [2] (Pseudomonas aeruginosa, MDR P. aeruginosa, read-out: MIC90), 16 µg/mL (≈ 20.4 µM). The “growth of clinical isolates” value in series [1] (clinical isolates, in words) was “effectively inhibit the growth”. Besides, the “PalgD promoter activity (β-galactosidase reporter)” value in series [3] is recorded as “more pronounced effect on promoter activity than TOB”. The average droplet size in series [4] turned out to be 5.02 μm.
For `NC[C@H]1O[C@H](O[C@H]2[C@H](O)[C@@H](O[C@H]3O[C@H](CO)[C@@H](O)[C@H](N)[C@H]3O)[C@H](N)C[C@@H]2N)[C@H](N)C[C@@H]1O` [TOB, tobramycin], in series [5], the “viable cells in a preformed biofilm” value is reported as “significantly reduced the number of viable cells”. The molecule also registered an average droplet size in series [4] of 5.07 μm.

The values are drawn from US10993935B2, “Compositions and methods for treatment of lung infections” (priority 2018, dated 2021).
